Data on ten molecules can be found in patent US7465741B2, “C-substituted tricyclic isoxazoline derivatives and their use as anti-depressants” (Janssen Pharmaceutica N.V., priority 2002, dated 2008).

One data set has as its target T1, hα2A receptor (Homo sapiens, UniProt P08913).
T1 construct: expressed in transfected cells; host or cells: CHO cells
T1 sequence (P08913 1-465): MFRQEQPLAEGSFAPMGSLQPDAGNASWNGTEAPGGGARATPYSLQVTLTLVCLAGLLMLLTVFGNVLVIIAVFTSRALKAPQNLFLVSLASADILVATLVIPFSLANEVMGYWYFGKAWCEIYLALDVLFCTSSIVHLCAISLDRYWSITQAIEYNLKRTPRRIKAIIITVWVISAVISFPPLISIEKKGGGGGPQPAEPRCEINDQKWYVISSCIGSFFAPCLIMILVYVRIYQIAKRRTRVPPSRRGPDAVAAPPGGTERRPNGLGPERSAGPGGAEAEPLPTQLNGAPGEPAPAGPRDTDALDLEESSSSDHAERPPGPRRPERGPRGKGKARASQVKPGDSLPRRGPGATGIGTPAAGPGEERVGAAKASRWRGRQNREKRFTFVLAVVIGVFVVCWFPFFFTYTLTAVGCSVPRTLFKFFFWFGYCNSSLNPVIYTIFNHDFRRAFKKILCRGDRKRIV
Put plainly: Radioligand binding experiment for hα2A receptor ([3H]-raulwolscine, CHO cell membranes). The settings on record: [3H]-raulwolscine 1 nM, membranes of CHO cells transfected with human α2A receptor; read-out: pIC50 hα2A (converted). As for the experimental part: (§1) The interaction of the compounds according to Formula (I) with hα2-receptors and h5-HT-transporters was assessed in in vitro radioligand binding experiments. In general, a low concentration of a radioligand with a high binding affinity for a particular receptor or transporter is incubated with a sample of a tissue preparation enriched in a particular receptor or transporter or with a preparation of cells expressing cloned human receptors in a buffered medium. During the incubation, the radioligand binds to the receptor or transporter. When equilibrium of binding is reached, the receptor bound radioactivity is separated from the non-bound radioactivity, and the receptor- or transporter-bound activity is counted. The interaction of the test compounds with the receptor is assessed in competition binding experiments. Various concentrations of the test compound are added to the incubation mixture containing the receptor- or transporter preparation and the radioligand. The test compound in proportion to its binding affinity and its concentration inhibits binding of the radioligand. The radioligand used for hα2A, hα2B and hα2C receptor binding was [^3H]-raulwolscine and for the h5-HT transporter was [^3H]paroxetine.
(§2) CHO cells, stabile transfected with human adrenergic-α2A-, —α2B or α2C receptor cDNA, were cultured in Dulbecco's Modified Eagle's Medium (DMEM)/Nutrient mixture Ham's F12 (ratio 1:1)(Gibco, Gent-Belgium) supplemented with 10% heat inactivated fetal calf serum (Life Technologies, Merelbeke-Belgium) and antibiotics (100 IU/ml penicillin G, 100 μg/ml streptomycin sulphate, 110 μg/ml pyruvic acid and 100 μg/ml L-glutamine). One day before collection, cells were induced with 5 mM sodiumbutyrate. Upon 80-90% of confluence, cells were scraped in phosphate buffered saline without Ca^2+ and Mg^2+ and collected by centrifugation at 1500×g for 10 min. The cells were homogenised in Tris-HCl 50 mM using an Ultraturrax homogenizer and centrifuged for 10 min at 23,500×g. The pellet was washed once by resuspension and rehomogenization and the final pellet was resuspended in Tris-HCl, divided in 1 ml aliquots and stored at −70° C.
(§3) Membranes were thawed and re-homogenized in incubation buffer (glycylglycine 25 mM, pH 8.0). In a total volume of 500 μl, 2-10 μg protein was incubated with [^3H]raulwolscine (NET-722) (New England Nuclear, USA) (1 nM final concentration) with or without competitor for 60 min at 25° C. followed by rapid filtration over GF/B filter using a Filtermate196 harvester (Packard, Meriden, Conn.). Filters were rinsed extensively with ice-cold rinsing buffer (Tris-HCl 50 mM pH 7.4). Filter-bound radioactivity was determined by scintillation counting in a Topcount (Packard, Meriden, Conn.) and results were expressed as counts per minute (cpm). Non-specific binding was determined in the presence of 1 μM oxymetazoline for hα2A- and hα2B receptors and 1 μM spiroxatrine for hα2C receptors.
(§4) Data from assays in the presence of compound were calculated as a percentage of total binding measured in the absence of test compound. Inhibition curves, plotting percent of total binding versus the log value of the concentration of the test compound, were automatically generated, and sigmoidal inhibition curves were fitted using non-linear regression. The pIC50 values of test compounds were derived from individual curves.

In the next data set the target is T2, h5-HT transporter (Homo sapiens, UniProt P31645).
T2 construct: Human platelet membranes (Oceanix Biosciences Corporation, Hanover, Md., USA) were thawed; tissue Oceanix Biosciences Corporation; host or cells: human platelet membranes
Put plainly: Radioligand binding experiment for 5-HT transporter ([3H]paroxetine, human platelet membranes). The conditions noted are these: [3H]paroxetine 0.5 nM, read-out: pIC50 h5HTT (converted). As for the experimental part:
as §1
Human platelet membranes (Oceanix Biosciences Corporation, Hanover, Md., USA) were thawed, diluted in buffer (Tris-HCl 50 mM, 120 mM NaCl and 5 mM KCl) and quickly (max 3 s) homogenised with an Ultraturrax homogenizer. In a total volume of 250 μL, 50-100 μg protein was incubated with [^3H]paroxetine (NET-869) (New England Nuclear, USA) (0.5 nM final concentration) with or without competitor for 60 min at 25° C. Incubation was stopped by rapid filtration of the incubation mixture over GF/B filters, pre-wetted with 0.1% polyethyleneamine, using a Filtermate 196 harvester (Packard, Meriden, Conn.). Filters were rinsed extensively with ice-cold buffer and radioactivity on the filters was counted in a Topcount liquid scintillation counter (Packard, Meriden, Conn.). Data were expressed as cpm. Imipramine (at 1 μM final concentration) was used to determine the non-specific binding.
as §4

Another data set concerns the target T3, hα2C receptor (Homo sapiens, UniProt P18825).
T3 construct: expressed in transfected cells; host or cells: CHO cells
T3 sequence (P18825 1-462): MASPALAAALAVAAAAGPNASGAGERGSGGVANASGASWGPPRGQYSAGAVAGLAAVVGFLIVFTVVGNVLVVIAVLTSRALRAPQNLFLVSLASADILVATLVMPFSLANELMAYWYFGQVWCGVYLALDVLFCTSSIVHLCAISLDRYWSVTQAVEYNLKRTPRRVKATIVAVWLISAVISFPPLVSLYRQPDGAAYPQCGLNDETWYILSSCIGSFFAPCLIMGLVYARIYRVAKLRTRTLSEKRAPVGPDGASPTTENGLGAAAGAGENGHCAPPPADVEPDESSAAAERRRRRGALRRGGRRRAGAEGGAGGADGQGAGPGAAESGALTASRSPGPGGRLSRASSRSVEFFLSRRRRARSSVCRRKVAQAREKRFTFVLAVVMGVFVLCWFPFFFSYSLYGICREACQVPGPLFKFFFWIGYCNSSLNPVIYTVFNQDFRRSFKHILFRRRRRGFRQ
The data set is described as follows: Radioligand binding experiment for hα2C receptor ([3H]-raulwolscine, CHO cell membranes). The conditions noted are these: [3H]-raulwolscine 1 nM, membranes of CHO cells transfected with human α2C receptor; read-out: pIC50 hα2C (converted). The method, then: as §1, §2, §3, §4

For another data set, the target named is T4, hα2B receptor (Homo sapiens, UniProt P18089).
T4 construct: expressed in transfected cells; host or cells: CHO cells
T4 sequence (P18089 1-450): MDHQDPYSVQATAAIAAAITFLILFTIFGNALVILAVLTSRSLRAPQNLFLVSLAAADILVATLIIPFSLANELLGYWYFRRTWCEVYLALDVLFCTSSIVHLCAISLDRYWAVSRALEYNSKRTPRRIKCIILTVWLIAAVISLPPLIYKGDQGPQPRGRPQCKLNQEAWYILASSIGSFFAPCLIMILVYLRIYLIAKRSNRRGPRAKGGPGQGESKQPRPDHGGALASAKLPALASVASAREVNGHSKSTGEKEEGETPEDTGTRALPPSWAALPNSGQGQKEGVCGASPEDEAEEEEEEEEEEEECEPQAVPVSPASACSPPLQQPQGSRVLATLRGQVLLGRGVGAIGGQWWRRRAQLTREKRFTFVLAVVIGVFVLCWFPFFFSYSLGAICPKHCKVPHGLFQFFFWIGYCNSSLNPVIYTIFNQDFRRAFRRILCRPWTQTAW
The data set is described as follows: Radioligand binding experiment for hα2B receptor ([3H]-raulwolscine, CHO cell membranes). The settings on record: [3H]-raulwolscine 1 nM, membranes of CHO cells transfected with human α2B receptor; read-out: pIC50 hα2B (converted). The method, then:
as §1, §2, §3, §4

Structures are written as SMILES. Structures can show the parent of a compound that is named as a salt.

T2 sequence (P31645 whole entry): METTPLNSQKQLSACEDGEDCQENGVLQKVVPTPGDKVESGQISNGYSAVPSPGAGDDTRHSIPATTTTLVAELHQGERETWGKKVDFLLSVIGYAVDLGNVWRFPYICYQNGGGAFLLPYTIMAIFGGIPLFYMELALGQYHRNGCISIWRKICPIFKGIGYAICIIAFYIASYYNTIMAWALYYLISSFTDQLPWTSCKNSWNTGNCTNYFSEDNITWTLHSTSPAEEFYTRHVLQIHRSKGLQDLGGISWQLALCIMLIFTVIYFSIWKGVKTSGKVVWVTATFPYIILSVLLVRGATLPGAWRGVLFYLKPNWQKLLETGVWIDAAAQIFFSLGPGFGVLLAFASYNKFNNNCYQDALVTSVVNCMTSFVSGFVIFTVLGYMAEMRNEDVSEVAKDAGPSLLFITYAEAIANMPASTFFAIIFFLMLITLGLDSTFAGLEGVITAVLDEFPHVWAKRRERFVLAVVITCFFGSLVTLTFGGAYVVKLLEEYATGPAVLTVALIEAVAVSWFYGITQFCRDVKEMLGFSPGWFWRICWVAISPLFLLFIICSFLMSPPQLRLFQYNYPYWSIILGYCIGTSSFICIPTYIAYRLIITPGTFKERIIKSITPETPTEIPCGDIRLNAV

By melting point is commonly meant the temperature, or range, at which the solid turns liquid. `COc1cc2c(cc1CN1CCOCC1)OCC1C2=NOC1CN1CCN(CC(C)=Cc2ccccc2)CC1` (single isomer, unassigned) [Compound 21] displayed a melting point of 56.1 to 68 °C. The IC50 on hα2A receptor was 0.0158 µM. On h5-HT transporter, the IC50 was 0.01 µM. Further, the IC50 on hα2C receptor was 0.00316 µM. Also, the IC50 at hα2B receptor is 0.00631 µM.
Take `C/C(=C\c1ccccc1)CN1CCN(CC2ON=C3c4ccc(C#N)cc4OCC32)CC1` (centres unmarked) [Compound 13, 3-[4-(2-Methyl-3-phenyl-allyl)-piperazin-1-ylmethyl]-3a,4-dihydro-3H -chromeno[4,3-c]isoxazole-7-carbonitrile]: the melting point lay in the range of 132.2 to 146.7 °C. For the same molecule, the IC50 at hα2A receptor is 0.00158 µM. At h5-HT transporter, the IC50 is 0.126 µM. On hα2C receptor, the IC50 was 0.000501 µM.
`CC(=Cc1ccccc1)CN1CCN(CC2ON=C3c4ccc(CN(C)CCO)cc4OCC32)CC1` (centres unmarked) (as salt: HCl) [Compound 9, 2-(Methyl-{3-[4-(2-methyl-3-phenyl-allyl)-piperazin-1-ylmethyl]-3a,4-dihydro-3H -chromeno[4,3-c]isoxazol-7-ylmethyl}-amino)-ethanol] gave a melting point of 228.6 to 252.1 °C.
In the case of `COCc1ccc2c(c1)OCC1C2=NOC1CN1CCN(CC(C)=Cc2ccccc2)CC1` (centres unmarked) [Compound 5, 7-Methoxymethyl-3-[4-(2-methyl-3-phenyl-allyl)-piperazin-1-ylmethyl]-3a,4-dihydro-3H-chromeno[4,3-c]isoxazole], the IC50 at hα2A receptor was 0.00316 µM; on h5-HT transporter, 0.158 µM; at hα2C receptor it was 0.000794 µM; at hα2B receptor, 0.00251 µM.
On the same counts, the results for `COCCOCOCc1cc2c(cc1OC)C1=NOC(CN3CCN(C/C(C)=C/c4ccccc4)CC3)C1CO2` (centres unmarked) [Compound 6, 8-Methoxy-7-(2-methoxy-ethoxymethoxymethyl)-3-[4-(2-methyl-3-phenyl-allyl) -piperazin-1-ylmethyl]-3a,4-dihydro-3H-chromeno[4,3-c]isoxazole] are 0.00794 µM, 0.0316 µM, 0.000794 µM and 0.00251 µM.
Consider `CC(=Cc1ccccc1)CN1CCN(CC2ON=C3c4ccc(CN(C)CCO)cc4OCC32)CC1` (centres unmarked) [Compound 9, 2-(Methyl-{3-[4-(2-methyl-3-phenyl-allyl)-piperazin-1-ylmethyl]-3a,4-dihydro-3H -chromeno[4,3-c]isoxazol-7-ylmethyl}-amino)-ethanol], for which the IC50 was 0.00126 µM at hα2A receptor, 0.0251 µM on h5-HT transporter, 0.0002 µM on hα2C receptor and 0.000501 µM at hα2B receptor.
For the molecule `COc1cc2c(cc1CN1CCOCC1)OCC1C2=NOC1CN1CCN(CC(C)=Cc2ccccc2)CC1` (single isomer, unassigned) [Compound 20], the melting point was in the range of 66.5 to 89.8 °C. Further, the IC50 at hα2A receptor is 0.398 µM. Further, the IC50 on h5-HT transporter is 0.02 µM. Moreover, the IC50 at hα2C receptor was 0.0501 µM. Also, the IC50 at hα2B receptor was 0.02 µM.
With `CCN(Cc1cc2c(cc1OC)C1=NOC(CN3CCN(CC(C)=Cc4ccc(F)cc4)CC3)C1CO2)C(C)C` (centres unmarked) [Compound 24], the IC50 at hα2A receptor was 0.0398 µM; on h5-HT transporter, 0.00398 µM; on hα2C receptor, 0.00501 µM; at hα2B receptor, 0.0126 µM.
For `COc1cc2c(cc1-c1ccc(C(C)=O)s1)OCC1C2=NOC1CN1CCN(CC(C)=Cc2ccccc2)CC1` (centres unmarked) [Compound 18, 1-(5-{8-Methoxy-3-[4-(2-methyl-3-phenyl-allyl)-piperazin-1-ylmethyl]-3a,4-dihydro-3H-chromeno[4,3-c]isoxazol-7-yl}-thiophen-2-yl)-ethanone], the melting point is 150.1 to 171.8 °C. On hα2A receptor, the IC50 is 0.0158 µM. Moreover, the IC50 at hα2C receptor was 0.01 µM.
As for `Cc1ccc2c(c1)C1=NOC(CN3CCN(CC=Cc4ccccc4)CC3)C1CO2` (centres unmarked) [Compound 1, 8-Methyl-3-[4-(3-phenyl-allyl)-piperazin-1-ylmethyl]-3a,4-dihydro-3H-chromeno[4,3-c]isoxazole], the IC50 on hα2A receptor was 0.00398 µM; at h5-HT transporter, 0.0398 µM; on hα2C receptor, 0.0158 µM; at hα2B receptor, 0.01 µM.
